These results are taken from patent US7351581B2, “In vivo method for producing female offsprings in bovines” (priority 2000, dated 2008).

The subject of one data set is cows. Description: Example 3: vinegar, dilute acetic acid or acidified sodium acetate, no control group, cows. The protocol: (§1) The first study was conducted in a population primarily comprising cows and buffaloes. […] Equal number of animals were used in the standard/control group for comparison. The animals were in the study group were allowed to undergo one insemination. Thereafter, i.e. within 35-50 minutes, the material prepared according to the process described in Example 1 was administered to the animals in the study group. The animals in the control/standard group were not subject to administration of any material. Mating or insemination was not controlled. All the animals were allowed to move freely in their usual environment and were kept on normal diet. Their behavior and temperature/temperament especially of the study group. was monitored.
(§2) These animals were administered vinegar, dilute acetic acid, and sodium acetate solution in acidic pH separately.

Another data set deals with buffaloes. Description: Example 3: vinegar, dilute acetic acid or acidified sodium acetate, no control group, buffaloes. The protocol: as §1, §2
The subject of another data set is cows and buffaloes. Description: Example 3: totals for cows and buffaloes together. As to the method:
as §1, §2

Consider `CC(=O)O` [Acetic Acid dilute, acetic acid], for which, in the data set with cows (cows, no control group), the “OFFSPRING Females” value amounted to 6 and the “OFFSPRING Males” value is “Nil”. This molecule also had an Animals not conceived in the data set on cows (female, cows, in vivo) of 2. In addition, in the data set with cows (in vivo), the “No. of Miscarriages” value was “Nil”. Also, in the data set on buffaloes, the Animals not conceived amounted to 3, the “No. of Miscarriages” value is listed as “Nil”, the “OFFSPRING Females” value is given as 11 and the “OFFSPRING Males” value is listed as “Nil”. For the same molecule, in the data set with cows and buffaloes (cows and buffaloes together), the female offsprings delivered is on record as 17 and the “share of female offsprings” value came to 100%. The “animals that did not conceive” value in the data set on cows and buffaloes (female, cows and buffaloes, in vivo) is recorded as 5. In addition, in the data set on cows and buffaloes (in vivo), the “animals that reported miscarriage” value is given as “no animals reported miscarriage”.

On to `CC(=O)[O-].[Na+]` [Sodium Acetate Acidified, sodium acetate], for which, in the data set with cows (cows, no control group), the Animals not conceived is 1, the “No. of Miscarriages” value is on record as “Nil”, the “OFFSPRING Females” value was found to be 4 and the “OFFSPRING Males” value is reported as “Nil”. For the same molecule, in the data set on buffaloes, the Animals not conceived turned out to be 2, the “No. of Miscarriages” value was “Nil”, the “OFFSPRING Females” value is recorded as 8 and the “OFFSPRING Males” value is “Nil”. Further, in the data set on cows and buffaloes (cows and buffaloes together), the “animals that did not conceive” value came to 3, the female offsprings delivered is reported as 12 and the “share of female offsprings” value is on record as 100%.
